Results on five compounds are retold here after patent publication US20100273752A1, “MEQUITAZINE FOR TREATING OR PREVENTING PATHOLOGIES INVOLVING HISTAMINE H4 RECEPTORS” (PIERRE FABRE MEDICAMENT, priority 2007, published 2010).

Data set [1] addresses H4 receptor (Homo sapiens, UniProt Q9H3N8). As to the kind of experiment: G protein activation test ([35S] GTP binding). Particulars: for Effect on G protein activation induced by histamine: 0.1 μM histamine, FIG. 1a; for Functional character at H4 receptor (basal activity in the absence of agonist): FIG. 1b.
Data set [2] deals with T1, histamine H4 receptor (Homo sapiens, UniProt Q9H3N8). As to the kind of experiment: Receptor binding in vitro, HEK-293 cells stably transfected with human H4 receptor, 10 nM tritiated histamine. On the set-up: expressed in transfected cells; host or cells: HEK-293. Particulars: for inhibition at 10 µM: compounds tested at 10 μM, 10 nM tritiated histamine, HEK-293 cells. The method, then: The goal of this study is to determine an affinity constant of the compound with respect to human histamine H4 receptor in vitro. The model chosen is HEK-293 cells transfected in a stable fashion by cDNA coding for human H4 receptor (Liu et al., 2001). First is determined the affinity of cells expressing each type of receptor for a ligand for which it was also established that it bound 100% to the receptor. The optimal ligand for the recombinant receptor is 10 nM tritiated histamine. Receptor binding is defined as follows: the difference between total binding and the nonspecific binding determined in the presence of excess cold ligand. The results are expressed as a percentage of optimal binding obtained with the ligand model (100%).

For data set [3], the target named is T1, histamine H4 receptor. Nature of the data set: Affinity constants by competition with tritiated histamine on membrane preparations from CHO cells expressing H4 receptor. It is filed as binding. More on the design: expressed in transfected cells; host or cells: CHO. The settings on record: CHO cell membranes. From the text:
In a second series of experiments, the affinity constants of these three compounds are precisely determined by competition with the tritiated histamine radioligand on membrane preparations from CHO cells expressing in a stable manner histamine H4 receptor.

Data set [4] deals with bronchoconstriction induced by acetylcholine. As to the kind of experiment: Inhibition of acetylcholine-induced bronchoconstriction in anaesthetized ventilated guinea pigs. It is filed as in vivo, guinea pig. The method, then:
Guinea pigs are anaesthetized and artificially ventilated. The air penetrating the lungs is measured by means of a sensor. Each inspiration is thus quantified. Bronchoconstriction is then induced by intravenous injection of acetylcholine. The effect of acetylcholine is a direct and immediate modification of bronchial tonus. The bronchoconstriction effects of acetylcholine are evaluated in mm at the peak of the effects.

The subject of data set [5] is histamine-induced bronchoconstriction. As to the kind of experiment: Histamine-induced bronchoconstriction, Konzett model, intravenous administration. In kind it is in vivo, guinea pig. The method, then: The goal of these experiments is to evaluate the activity of the three compounds […] and […] with respect to histamine-induced bronchoconstriction in the Konzett (1940) guinea pig model. Previously we saw that the three compounds exerted antihistamine activity with respect to H4 receptor in vitro, while on the other hand in vivo only […] and […] appeared anti-inflammatory when the inflammation is generated by histamine. It seems that […] loses its activity when it is administered by oral route. With an aim of analyzing the activity by intravenous route of the three products, the following test was conducted. The animals are ventilated, by means of a constant pressure respiratory pump, by a volume of air in excess. […] The variations observed represent changes in bronchial tonus. Histamine-induced bronchoconstriction causes an increase in the excess volume measured by the sensor. The various compounds are administered by way of the jugular vein, which is catheterized beforehand. Histamine stimulation is then carried out by intravenous route at a dose of 7 μg/kg.

Data set [6] concerns respiratory functions. Nature of the data set: Effects on respiratory functions after oral administration in male Wistar rats. It is filed as in vivo, rat. The method, then: The effects of […] (0.5, 50 and 100 mg/kg) on respiratory functions are analyzed after oral (per os) administration in male Wistar rats (8 rats/dose). […] (100 mg/kg) administered under the same conditions is used as a reference substance. Theophylline (100 mg/kg), administered under the same experimental conditions, is used as a reference substance. Carboxymethyl cellulose (0.5%) in distilled water is used as a control vehicle. At the end of the testing period (i.e., 360 minutes after administration of the dose), the behavior of the animals as well as the diameter of their pupils (miosis/mydriasis) are evaluated. Blood samples are taken from each rat (except those pertaining to the theophylline group) in order to analyze the concentration of the substance in the blood. […]

In data set [7] the test system is plantar edema induced by histamine. Nature of the data set: Plantar edema induced by histamine in the mouse, oral administration. The settings on record: for Inhibition of inflammation (%): 3 mg/kg oral. It is filed as in vivo. The method, then:
The goal of this experiment was to detect possible anti-inflammatory activity of […], […] and […] with respect to plantar edema induced by histamine in the mouse. The principle of the test is inspired by the publication of Kreutner et al. (2000). All groups were composed of 10 animals. The products were administered by oral route (25 ml/kg) in pretreatment, at various times: 120, 90, 60 and 30 minutes before the inflammation-producing agent. Sixty minutes later, an injection (10 μl) in the paw was given under isoflurane anesthesia. The right paw received 13 μg of histamine dihydrochloride and the left paw physiological saline solution (histamine vehicle). Thirty minutes after the injections, the animals were euthanized by cervical dislocation. The paws were sampled and weighed. The edemas were quantified by the difference between the weights of the paws (weight of right paw-weight of left paw).

T1 sequence (Q9H3N8 whole entry): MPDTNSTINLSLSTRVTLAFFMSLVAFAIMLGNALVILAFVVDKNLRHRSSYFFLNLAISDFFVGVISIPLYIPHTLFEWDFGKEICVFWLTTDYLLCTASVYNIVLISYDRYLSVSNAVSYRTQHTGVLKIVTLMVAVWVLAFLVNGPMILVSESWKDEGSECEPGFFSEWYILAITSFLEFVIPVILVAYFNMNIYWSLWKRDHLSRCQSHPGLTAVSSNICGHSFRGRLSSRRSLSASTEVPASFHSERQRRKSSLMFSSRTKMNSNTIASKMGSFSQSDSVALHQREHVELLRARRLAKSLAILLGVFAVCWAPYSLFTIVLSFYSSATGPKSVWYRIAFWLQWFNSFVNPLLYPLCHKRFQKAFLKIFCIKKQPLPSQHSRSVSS
Chain of H4 receptor (Q9H3N8 whole entry): as above

For `S=C(NC1CCCCC1)N1CCC(c2cnc[nH]2)CC1` [thioperamide, reference compound], in data set [1], the “Effect on G protein activation induced by histamine” value (shortened to “Effect … by histamine”) is on record as “antagonize the activating action” and the “Functional character at H4 receptor (basal activity in the absence of agonist)” value (shortened to “Functional character at H4 receptor”) is listed as “inverse agonists”.
In the case of `c1ccc2c(c1)Sc1ccccc1N2C[C@@H]1CN2CCC1CC2` [V0114, 10-[(3S)-1-azabicyclo[2.2.2]oct-3-ylmethyl]-10H-phenothiazine], the “Binding to human histamine H4 receptors (in words)” value in data set [2] is on record as “strongly bind”. In data set [2], the inhibition (in general, the share of the control response that was lost under treatment) at 10 µM was 33%. Moreover, in data set [3], the Ki – broadly, a measure of affinity in units of concentration, obtained from inhibition or displacement – turned out to be 2490 ± 370 nM. In data set [1], the “Effect … by histamine” value was “antagonize the activating action”. Also, the “Functional character at H4 receptor” value in data set [1] was “inverse agonists”. The results for the “Percentage of inhibition (%)” value in data set [4] (dose 25 μg/kg), in data set [4] (dose 50 μg/kg) and in data set [4] (dose 100 μg/kg) were −7 ± 3%, −6 ± 1% and −14 ± 4%, respectively. The Inhibition (in general, the change of the read-out against control, counted positive when it falls) at 5 min (%) in data set [5] (12.5 mg/kg i.v.) is −15 ± 3%; in data set [5] (25 mg/kg i.v.) it was −29 ± 3%; in data set [5] (37.5 mg/kg i.v.), −51 ± 8%; in data set [5] (50 mg/kg i.v.), −48 ± 6%. For the same compound, the “Inhibition at 30 min (%)” value in data set [5] (12.5 mg/kg i.v.) is reported as −35 + 6%; in data set [5] (25 mg/kg i.v.) it was −71 + 5%; in data set [5] (37.5 mg/kg i.v.), −91 + 2%; in data set [5] (50 mg/kg i.v.), −97 + 2%. Also, the “Effect on the nine respiratory parameters evaluated” value in data set [6] (0.5, 50 and 100 mg/kg p.o., 360 minute test period) is recorded as “does not have a significant effect”. For the same compound, the Pupil diameter result in data set [6] (male, Wistar, rat, in vivo, 360 min) is recorded as “an increase of 50 mg/kg related to the administration was noted”. The “Inhibition of inflammation (%)” value in data set [7] (pretreatment −30 min) was −63%; in data set [7] (pretreatment −60 min), −58%; in data set [7] (pretreatment −90 min), −72%; in data set [7] (pretreatment −120 min), −71%. Besides, the “Anti-inflammatory activity, range over pretreatment times” value in data set [7] (oral, 120, 90, 60 and 30 minutes beforehand) is listed as −58% to −72%.
For the compound `CN1[C@@H]2CC[C@H]1C[C@@H](OC(=O)C(CO)c1ccccc1)C2` (stereo partly shown) [Atropine, reference compound], the “Percentage of inhibition (%)” value in data set [4] (dose 5 μg/kg) is given as −76 ± 8%.
On to `c1ccc2c(c1)Sc1ccccc1N2C[C@H]1CN2CCC1CC2` [V0162, 10-[(3R)-1-azabicyclo[2.2.2]oct-3-ylmethyl]-10H-phenothiazine], for which the “Binding to human histamine H4 receptors (in words)” value in data set [2] is given as “strongly bind”. In addition, in data set [2], testing at 10 µM gave an inhibition of 52%. This compound had a Ki in data set [3] of 1180 ± 160 nM. The “Effect … by histamine” value in data set [1] is “antagonize the activating action”. For the same compound, in data set [1], the “Functional character at H4 receptor” value is listed as “inverse agonists”. In addition, the “Percentage of inhibition (%)” value was −9 ± 3% in data set [4] (dose 25 μg/kg), −29 ± 4% in data set [4] (dose 50 μg/kg) and −37 ± 5% in data set [4] (dose 100 μg/kg). Also, the “Inhibition at 5 min (%)” value is reported as −17 + 3% in data set [5] (25 mg/kg i.v.), −23 + 4% in data set [5] (37.5 mg/kg i.v.) and −31 + 12% in data set [5] (50 mg/kg i.v.). Besides, the “Inhibition at 30 min (%)” value in data set [5] (25 mg/kg i.v.) is on record as −9 ± 8%; in data set [5] (37.5 mg/kg i.v.) it was −9 ± 9%; in data set [5] (50 mg/kg i.v.), −4 ± 10%. The “Inhibition of inflammation (%)” value in data set [7] (pretreatment −30 min) is “+2%”; in data set [7] (pretreatment −60 min) it was “+25%”; in data set [7] (pretreatment −90 min), −5%; in data set [7] (pretreatment −120 min), “+12%”. In addition, in data set [7] (oral route), the “Effect on histamine edema (in words)” value is listed as “does not reduce this edema”.
As to `Cn1c(=O)c2[nH]cnc2n(C)c1=O` [Theophylline, reference compound], in data set [6] (100 mg/kg p.o., at 60 minutes), the “Change in peak flow of expiration” value is recorded as “+121%”, the “Change in peak flow of inspiration” value was “+116%”, the “Change in relaxation time” value was −61% and the “Change in respiratory rate” value was “+223%”. For the same compound, in data set [6] (100 mg/kg p.o., at 60 minutes), the “Change in time of expiration” value is −63% and the “Change in time of inspiration” value is listed as −60%. In addition, the “Change in respiratory volume” value in data set [6] (100 mg/kg p.o., at 120 minutes) is reported as −17%. Besides, in data set [6] (100 mg/kg p.o., at 300 minutes), the “Change in 'improves respiratory pause' parameter” value was −37% and the “Change in respiratory pause” value is given as −20%. The “Behavior and signs of morbid state” value in data set [6] (360 minutes post-administration, V0114 0.5, 50 and 100 mg/kg, L0013 and theophylline 100 mg/kg) was “no change of behavior or signs of morbid state”.
